Assay results as given in publication PMC4900628, “Critical Evaluation of P2X7 Receptor Antagonists in Selected Seizure Models” (PLoS ONE, 2016).
Read-outs that look alike come from different tables or passages of the source.

How the values were obtained:
Type in all cases: in vivo
[1] = system: electroshock-induced tonic (hindlimb extension) seizures; assay: Maximal electroshock seizure threshold test (MES-T); conditions: mice; carbamazepine 7 mg/kg i.p. alone, 30 min before
Experimental: The stimulus train was applied via ear-clip electrodes (sinusoidal pulses 4-14 mA, 50 Hz, 0.2 s duration) by means of a constant current stimulator (rodent-shocker type 221; Hugo Sachs Elektronik, March-Hugstetten, Germany). […] Groups of 20 mice were used. Control groups, which received the corresponding vehicle, were tested together with the compound-treated groups on the same experimental day. Current intensity-effect curves were obtained on the basis of the number of animals responding with the endpoint at the corresponding current value. The results are calculated as convulsive current fifty (CC50) values (current intensity in mA, necessary to produce tonic hindlimb extension in 50% of the mice tested) including the confidence limits for 95% probability. […] Chemicals, Toronto, Canada) was slowly added. The pH was adjusted with 1N NaOH (similar amount of NaOH as HCl), all with continuous stirring. […] The drug solutions or suspensions were prepared immediately before use; all doses refer to the salts. Animals in the control group received equivalent volumes of the vehicle (in mice always 10 ml/kg, in rats 1 ml/kg [JNJ], 3 ml/kg [AFC] or 4 ml/kg [BBG, TIIAS], depending on the solubility of the different compounds). Doses and peak time effects were selected on the basis of effective doses from corresponding in vivo studies in the literature: BBG (e.g.), tanshinone IIA (e.g.) and from manufacturer's experimental data: AFC, JNJ (see, [80]). Data were analysed using SigmaPlot (vers. 12.0, Systat Software, Erkrath, Germany) and SPSS (IBM SPSS Statistics 20, […], Germany), respectively. Results are expressed as mean ± SEM. […] In the PTZ-T, the number of animals in the group with clonic seizures and the latency time were analysed using Fisher's exact probability test and the Mann-Whitney rank sum test, respectively. […] In the PTZ-kindling model, the mean seizure stage within a group was calculated in relation to the number of PTZ-injections. […] In fully kindled rats, the calculated mean seizure stage within a group after vehicle- and compound-treatment were compared using a paired t-test. […]

[2] = Plasma and brain concentration in mice (co-administration with AEDs); conditions: MES-T; for concentration at 30 min: mouse, brain, intraperitoneal, CBZ 7 mg/kg i.p.
Experimental: Blood was collected intracardially by heart […] pipettes supplemented with heparin-Na (ratiopharm, Ulm, Germany; 10μl of 5.000 I.U./ml) and separated by centrifuging (1500xg for 10 min) at 6-8°C. The plasma was stored at -20°C in plastic tubes. After blood sample collection, rats were decapitated and brains were quickly dissected. After removing the adherent blood by tissue paper and cutting off the cerebellum, the samples were fresh frozen using liquid nitrogen. Brain tissue was stored at -80°C and delivered to the different laboratories on dry ice. For mice (groups with n = 6), a similar procedure was used for the preparation of plasma and brain samples. In experiments in which AFC was co-administered with carbamazepine or ethosuximide, drug concentrations in plasma and brain were estimated to detect potential pharmacokinetic interactions. Samples from experiments with AFC were analysed at the Lead Discovery Center (Dortmund, Germany). Briefly, AFC, carbamazepine and ethosuximide were extracted from plasma and homogenized brain by protein precipitation using acetonitrile. Resulting filtrates were analysed by liquid chromatography tandem-mass spectrometry (LC-MS/MS) using a Prominence UFLC system (Shimadzu, Duisburg, Germany) coupled to a QTrap 5500 instrument (ABSciex, Darmstadt, Germany). The compounds were separated on a Zorbax Eclipse Plus C18 column (Agilent Technologies, Santa Clara, CA, USA) with an acetonitrile/water gradient containing 0.1% formic acid as solvent. Chromatographic conditions and mass spectrometer parameters were optimized for each analyte. Plasma and brain concentrations of the compounds were calculated by means of a standard curve. Data were analysed using SigmaPlot (vers. 12.0, Systat Software, Erkrath, Germany) and SPSS (IBM SPSS Statistics 20, […], Germany), respectively. Results are expressed as mean ± SEM. […] In the MES-T, the current intensity inducing tonic hindlimb extensions in 50% of the mice (CC50 values with confidence limits for 95% probability) and the statistical significance was calculated using Probit analysis (SPSS). […] In the PTZ-T, the number of animals in the group with clonic seizures and the latency time were analysed using Fisher's exact probability test and the Mann-Whitney rank sum test, respectively. For multiple comparisons of the latency time a one-way ANOVA with the Holm-Sidak post hoc test was used. The influence of AFC on the plasma and brain concentrations of the antiepileptic drugs was statistical compared using the same procedure. In the PTZ-kindling model, the mean seizure stage within a group was calculated in relation to the number of PTZ-injections. Statistical comparison between vehicle- and compound-treated groups in this model was performed with two-way repeated measures ANOVA, followed by the Holm-Sidak post hoc test. The mean number of PTZ-injections needed to produce the first generalized seizure (≥ stage 3 convulsions) in the vehicle- versus compound-treated groups was statistically compared using a Mann-Whitney rank sum test. In fully kindled rats, the calculated mean seizure stage within a group after vehicle- and compound-treatment were compared using a paired t-test. P < 0.05 was the accepted minimum level of significance.

[3] = system: PTZ-induced seizures in fully PTZ-kindled rats; assay: PTZ-induced seizures in fully kindled rats; conditions: fully kindled rats; 20 mg/kg i.p.; pre-drug (vehicle) value 4.1
Source text: Results were expressed as mean seizure stages of a tested group in which the seizure behaviour after vehicle treatment (vehicle seizure stage) and after compound treatment (compound seizure stage), examined 3-4 days later, was matched. For comparison, the effectiveness of two antiepileptic drugs (carbamazepine and valproate) was also investigated. […] Chemicals, Toronto, Canada) was slowly added. The pH was adjusted with 1N NaOH (similar amount of NaOH as HCl), all with continuous stirring. […] The drug solutions or suspensions were prepared immediately before use; all doses refer to the salts. Animals in the control group received equivalent volumes of the vehicle (in mice always 10 ml/kg, in rats 1 ml/kg [JNJ], 3 ml/kg [AFC] or 4 ml/kg [BBG, TIIAS], depending on the solubility of the different compounds). Doses and peak time effects were selected on the basis of effective doses from corresponding in vivo studies in the literature: BBG (e.g.), tanshinone IIA (e.g.) and from manufacturer's experimental data: AFC, JNJ (see, [80]). Data were analysed using SigmaPlot (vers. 12.0, Systat Software, Erkrath, Germany) and SPSS (IBM SPSS Statistics 20, […], Germany), respectively. Results are expressed as mean ± SEM. […] In the MES-T, the current intensity inducing tonic hindlimb extensions in 50% of the mice (CC50 values with confidence limits for 95% probability) and the statistical significance was calculated using Probit analysis (SPSS). […] In the PTZ-T, the number of animals in the group with clonic seizures and the latency time were analysed using Fisher's exact probability test and the Mann-Whitney rank sum test, respectively. For multiple comparisons of the latency time a one-way ANOVA with the Holm-Sidak post hoc test was used. The influence of AFC on the plasma and brain concentrations of the antiepileptic drugs was statistical compared using the same procedure. In the PTZ-kindling model, the mean seizure stage within a group was calculated in relation to the number of PTZ-injections. Statistical comparison between vehicle- and compound-treated groups in this model was performed with two-way repeated measures ANOVA, followed by the Holm-Sidak post hoc test. The mean number of PTZ-injections needed to produce the first generalized seizure (≥ stage 3 convulsions) in the vehicle- versus compound-treated groups was statistically compared using a Mann-Whitney rank sum test. In fully kindled rats, the calculated mean seizure stage within a group after vehicle- and compound-treatment were compared using a paired t-test. P < 0.05 was the accepted minimum level of significance.

plasma concentrations of CBZ on co-application of AFC ([2]; AFC 25 or 50 mg/kg s.c.): not significantly modulated
concentration at 30 min ([2]; 7 mg/kg, n = 6, read-out: brain concentration of CBZ alone): 22.8 ± 1.5 µM
concentration at 30 min ([2]; n = 6, significantly lowered, read-out: brain concentration of CBZ with AFC 25 mg/kg s.c.): 16.2 ± 0.6 µM
concentration at 30 min ([2]; n = 6, significantly lowered, read-out: brain concentration of CBZ with AFC 50 mg/kg s.c.): 17.2 ± 1.7 µM
SMILES: NC(=O)N1c2ccccc2C=Cc2ccccc21 [carbamazepine]
increase of the electroconvulsive threshold [1]: about 50%
mean seizure stage, post-drug [3]: 2.3
